One data set deals with Pleurotus eryngii. The note with it: cited from earlier work.
The conditions of data set [1]: during spa use (PubChem Compound Database); cited from earlier work.
For data set [2], the system named is C. cinerea. In words: C. cinerea fruiting body development, solution spread on YMG agar surface before inoculation (Example 5). In kind it is cell-based, Coprinopsis cinerea. The note with it: 6 days light/dark cycle at 25° C. How it is done:
FIG. 9: Effect on C. cinerea fruiting body development by GSK3 inhibitor-LiCl at different concentration. Water or LiCl solution was spread on the surface of YMG agar, before inoculation. After 6-days all dark incubation in 37° C., the plates were transferred to 25° C. with 12-hours light and 12-hours dark cycle (light/dark cycle) for 5-days incubation. […] Initials and hyphal knots formed on the plates treated with 0.75 g/L and 1.5 g/L LiCl respectively.
FIG. 10: Effect on C. cinerea fruiting body development by GSK3 inhibitor-CHIR-99021 HCl at different concentration. Water or CHIR-99021 HCl solution was spread on the surface of YMG agar, before inoculation. After the mycelium reached the edge of plates, the plates were transferred to 25° C. with light/dark cycle for 6-days incubation.
FIG. 11: Effect on C. cinerea fruiting body development by GSK3 activator-Cisplatin at different concentration. Water or Cisplatin solution was spread on the surface of YMG agar, before inoculation. After the mycelium reached the edge of plates, the plates were transferred to 25° C. with light/dark cycle. […] Young fruiting body developed on the control YMG plates treated with water.
Two GSK3 inhibitors (LiCl and CHIR-99021 HCl) and one GSK3 activator (Cisplatin) were tested in Coprinopsis cinerea, and one GSK3 inhibitor (LiCl) was tested in Pleurotus djamor (commonly known as the pink oyster mushroom). Belonging to the same order Agaricales, these two tested mushroom species are of two different families, Psathyrellaceae and Pleurotaceae, respectively.
Water or LiCl solution was spread on the surface of YMG agar before inoculation of C. cinerea. After 6-days all dark incubation in 37° C., the plates were transferred to 25° C. with 12-hours light and 12-hours dark cycle (light/dark cycle) for 5-days incubation. […] Initials and hyphal knots were formed on the plates treated with 0.75 g/L and 1.5 g/L LiCl respectively.
Water or CHIR-99021 HCl solution was spread on the surface of YMG agar before inoculation of C. cinerea. After the mycelium reached the edge of plates, the plates were transferred to 25° C. with light/dark cycle for 6-days incubation.
Water or Cisplatin solution was spread on the surface of YMG agar before C. cinerea inoculation. After the mycelium reached the edge of plates, the plates were transferred to 25° C. with light/dark cycle. […] Young fruiting body developed on the control YMG plates treated with water.

For data set [3], the system named is C. cinerea. Description: C. cinerea on YMG agar treated with CHIR-99021 HCl (Example 2). Type of data set: cell-based, Coprinopsis cinerea. As to the method:
Another GSK-3 inhibitor was used to confirm inhibition of LiCl on GSK-3. C. cinerea was cultivated on YMG agar and treated with water for control group and 1 uM, 100 uM and 500 uM of CHIR-99021 HCl for experimental group.

SMILES strings stand for the structures.

`O=C([O-])[O-].[Li+].[Li+]` [lithium carbonate]: the “Lithium carbonate concentration at which fruiting body cannot form” value in the data set on Pleurotus eryngii is given as “higher than 0.75 mM”.

With `[Li]` [Lithium], the Skin absorption entry in data set [1] is recorded as “not absorbed through the skin”.

On to `Cc1cnc(-c2cnc(NCCNc3ccc(C#N)cn3)nc2-c2ccc(Cl)cc2Cl)[nH]1.Cl.Cl.Cl` [CHIR-99021 HCl, 6-[[2-[[4-(2,4-Dichlorophenyl)-5-(5-methyl-1H-imidazol-2-yl)-2-pyrimidinyl]amino]ethyl]amino]-3-pyridinecarbonitrile trihydrochloride], for which the “Fruiting body development stage reached” value is listed as “Young fruiting bodies developed” in the data set on C. cinerea [2] (1 μM CHIR-99021 HCl); “developed primordium” with C. cinerea [2] (100 μM CHIR-99021 HCl); “remained arrested in mycelium stage” in the data set with C. cinerea [2] (500 μM CHIR-99021 HCl, trihydrochloride). Besides, the Fruiting body development result in the data set on C. cinerea [3] (1 uM CHIR-99021 HCl) is recorded as “developed initials”; in the data set on C. cinerea [3] (100 uM CHIR-99021 HCl), “developed initials”; with C. cinerea [3] (higher CHIR-99021 HCl concentration (500 uM group)), “inhibited fruiting”. Further, the Fruiting body formation result in the data set on C. cinerea [3] (concentration not given) was “inhibits fruiting body formation”.

As for `N.N.[Cl][Pt][Cl]` [Cisplatin, cis-diamminedichloridoplatinum(II)], the “Fruiting body development stage reached” value in the data set on C. cinerea [2] (1 ml saturated Cisplatin) is “had fruiting body and began autolysis”.
